# Laboratory results published in patent US9890171B2, “Aldosterone synthase inhibitors” (Boehringer Ingelheim International GmbH, priority 2014, dated 2018).
# Biological target: aldosterone synthase (CYP11B2) (Macaca fascicularis, UniProt A0A2K5UPL9)
# Assay: aldosterone synthase inhibition assay
# Type: biochemical, cynomolgus monkey
# Conditions: cynomolgus adrenal gland mitochondria, 2 μM corticosterone, aldosterone quantified by mass spectrometry
# Summary of the method: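 Cynomolgus adrenal mitochondria ([…]) used as CYP11B2 source with 2 μM corticosterone in 100 mM potassium phosphate pH 7.4, 1% DMSO; reaction started with 1 mM NADPH, run 60-90 min at 37° C. Aldosterone measured by mass spectrometry; IC50 from 4-parameter logistic fit, no-NADPH blank as 0%.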
# Sequence of aldosterone synthase (CYP11B2) (A0A2K5UPL9 1-503): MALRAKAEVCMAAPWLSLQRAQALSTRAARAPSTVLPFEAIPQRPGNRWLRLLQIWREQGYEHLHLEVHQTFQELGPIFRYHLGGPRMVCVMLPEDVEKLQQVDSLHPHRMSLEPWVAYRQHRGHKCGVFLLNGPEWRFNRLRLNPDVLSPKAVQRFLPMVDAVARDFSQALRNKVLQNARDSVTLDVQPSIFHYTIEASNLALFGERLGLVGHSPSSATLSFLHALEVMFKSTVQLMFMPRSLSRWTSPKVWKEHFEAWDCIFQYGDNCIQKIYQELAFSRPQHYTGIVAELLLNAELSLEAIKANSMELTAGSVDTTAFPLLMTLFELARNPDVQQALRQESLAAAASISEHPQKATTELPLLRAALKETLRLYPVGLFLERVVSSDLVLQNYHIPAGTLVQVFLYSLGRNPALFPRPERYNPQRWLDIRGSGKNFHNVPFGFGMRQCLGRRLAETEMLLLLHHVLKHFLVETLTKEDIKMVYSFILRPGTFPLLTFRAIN
row,Compound,IC50
1,"NC(=O)c1cccc2cc(-c3cncc4c3COCC4O)cnc12 (single isomer, unassigned) [Compound 105, 3-(4-Hydroxy-3,4-dihydro-1H-pyrano[4,3-c]pyridin-8-yl)-quinoline-8-carboxylic acid amide]",51.1 nM
2,"Cn1ncc2c(C#N)cc(-c3cncc4c3COCC4O)cc21 (single isomer, unassigned) [Compound 106, 6-(4-Hydroxy-3,4-dihydro-1H-pyrano[4,3-c]pyridin-8-yl)-1-methyl-1H-indazole-4-carbonitrile]",599 nM
3,"OC1COCc2c(-c3ccc4c(c3)COCCO4)cncc21 (single isomer, unassigned) [Compound 107, 8-(2,3-Dihydro-5H-benzo[e][1,4]dioxepin-7-yl)-3,4-dihydro-1H-pyrano[4,3-c]pyridin-4-ol]",79.9 nM
4,"OC1COCc2c(-c3ccc4c(c3)COCCO4)cncc21 (single isomer, unassigned) [Compound 108, 8-(2,3-Dihydro-5H-benzo[e][1,4]dioxepin-7-yl)-3,4-dihydro-1H-pyrano[4,3-c]pyridin-4-ol]",771 nM
5,"CC(=O)N1Cc2ccc(-c3cncc4c3COCC4O)cc2C1 (single isomer, unassigned) [Compound 109, 1-[5-(4-Hydroxy-3,4-dihydro-1H-pyrano[4,3-c]pyridin-8-yl)-1,3-dihydro-isoindol-2-yl]-ethanone]",544 nM
6,"O=c1ccoc2cc(-c3cncc4c3COCC4O)ccc12 (single isomer, unassigned) [Compound 110, 7-(4-Hydroxy-3,4-dihydro-1H-pyrano[4,3-c]pyridin-8-yl)-chromen-4-one]",13 nM
7,"OC1c2cncc(-c3ccc4c(c3)COCCO4)c2COC12CC2 (single isomer, unassigned) [Compound 111, 8-(3,5-dihydro-2H-1,4-benzo[e][1,4]dioxepin-7-yl)spiro[1,4-dihydropyrano[4,3-c]pyridine-3,1′-cyclopropane]-4-ol]",114 nM
8,"OC1c2cncc(-c3ccc4c(c3)COCCO4)c2COC12CC2 (single isomer, unassigned) [Compound 112, 8-(3,5-dihydro-2H-1,4-benzo[e][1,4]dioxepin-7-yl)spiro[1,4-dihydropyrano[4,3-c]pyridine-3,1′-cyclopropane]-4-ol]",40.9 nM
9,"Cn1nc(C#N)c2ccc(-c3cncc4c3COCC4O)cc21 (single isomer, unassigned) [Compound 113, 6-(4-Hydroxy-3,4-dihydro-1H-pyrano[4,3-c]pyridin-8-yl)-1-methyl-1H-indazole-3-carbonitrile]",14.5 nM
10,"Cc1noc2ccc(-c3cncc4c3COC3(CC3)C4O)cc12 (single isomer, unassigned) [Compound 114, 8-(3-methyl-1,2-benzoxazol-5-yl)spiro[1,4-dihydropyrano[4,3-c]pyridine-3,1′-cyclopropane]-4-ol]",18.8 nM
11,"O=C1CCCc2ccc(-c3cncc4c3COCC4O)cc21 (single isomer, unassigned) [Compound 115, 7-(4-Hydroxy-3,4-dihydro-1H-pyrano[4,3-c]pyridin-8-yl)-3,4-dihydro-2H-naphthalen-1-one]",580 nM
12,"O=C1CCCc2ccc(-c3cncc4c3COCC4O)cc21 (single isomer, unassigned) [Compound 116, 7-(4-Hydroxy-3,4-dihydro-1H-pyrano[4,3-c]pyridin-8-yl)-3,4-dihydro-2H-naphthalen-1-one]",26.3 nM
13,"O=C1CCCc2cc(-c3cncc4c3COCC4O)ccc21 (single isomer, unassigned) [Compound 117, 6-(4-Hydroxy-3,4-dihydro-1H-pyrano[4,3-c]pyridin-8-yl)-3,4-dihydro-2H-naphthalen-1-one]",103 nM
14,"O=C1CCCc2cc(-c3cncc4c3COCC4O)ccc21 (single isomer, unassigned) [Compound 118, 6-(4-Hydroxy-3,4-dihydro-1H-pyrano[4,3-c]pyridin-8-yl)-3,4-dihydro-2H-naphthalen-1-one]",12.5 nM
15,"O=C1NCCc2ccc(-c3cncc4c3COCC4O)cc21 (single isomer, unassigned) [Compound 119, 7-(4-Hydroxy-3,4-dihydro-1H-pyrano[4,3-c]pyridin-8-yl)-3,4-dihydro-2H-isoquinolin-1-one]",960 nM
16,"O=C1NCCc2cc(-c3cncc4c3COCC4O)ccc21 (single isomer, unassigned) [Compound 120, 6-(4-Hydroxy-3,4-dihydro-1H-pyrano[4,3-c]pyridin-8-yl)-3,4-dihydro-2H-isoquinolin-1-one]",790 nM
17,"O=C1NCCc2cc(-c3cncc4c3COCC4O)ccc21 (single isomer, unassigned) [Compound 121, 6-(4-Hydroxy-3,4-dihydro-1H-pyrano[4,3-c]pyridin-8-yl)-3,4-dihydro-2H-isoquinolin-1-one]",95 nM
18,"O=C1CCOc2cc(-c3cncc4c3COCC4O)ccc21 (single isomer, unassigned) [Compound 122, 7-(4-Hydroxy-3,4-dihydro-1H-pyrano[4,3-c]pyridin-8-yl)-chroman-4-one]",194 nM

row,Compound,IC50
1,"O=C1CCOc2cc(-c3cncc4c3COCC4O)ccc21 (single isomer, unassigned) [Compound 123, 7-(4-Hydroxy-3,4-dihydro-1H-pyrano[4,3-c]pyridin-8-yl)-chroman-4-one]",16.3 nM
2,"CN1CCc2cc(-c3cncc4c3COCC4O)ccc2C1=O (single isomer, unassigned) [Compound 124, 6-(4-Hydroxy-3,4-dihydro-1H-pyrano[4,3-c]pyridin-8-yl)-2-methyl-3,4-dihydro-2H-isoquinolin-1-one]",1010 nM
3,"O=c1ccc2cc(-c3cncc4c3COCC4O)ccc2o1 (single isomer, unassigned) [Compound 125, 6-(4-Hydroxy-3,4-dihydro-1H-pyrano[4,3-c]pyridin-8-yl)-chromen-2-one]",22.8 nM
4,"O=c1ccc2cc(-c3cncc4c3COCC4O)ccc2o1 (single isomer, unassigned) [Compound 126, 6-(4-Hydroxy-3,4-dihydro-1H-pyrano[4,3-c]pyridin-8-yl)-chromen-2-one]",14 nM
5,"OC1COCc2c(-c3ccc4c(Cl)n[nH]c4c3)cncc21 (single isomer, unassigned) [Compound 127, 8-(3-Chloro-1H-indazol-6-yl)-3,4-dihydro-1H-pyrano[4,3-c]pyridin-4-ol]",6.7 nM
6,"CCC(=O)NC1COCc2c(-c3ccc4c(Cl)n[nH]c4c3)cncc21 (single isomer, unassigned) [Compound 128, N-[8-(3-Chloro-1H-indazol-6-yl)-3,4-dihydro-1H-pyrano[4,3-c]pyridin-4-yl]-propionamide]",11.2 nM
7,"CCS(=O)(=O)NC1COCc2c(-c3ccc4c(Cl)n[nH]c4c3)cncc21 (single isomer, unassigned) [Compound 129, Ethanesulfonic acid [8-(3-chloro-1H-indazol-6-yl)-3,4-dihydro-1H-pyrano[4,3-c]pyridin-4-yl]-amide]",45.9 nM
8,"OC1COCc2c(-c3cc(Cl)c4cn[nH]c4c3)cncc21 (single isomer, unassigned) [Compound 130, 8-(4-Chloro-1H-indazol-6-yl)-3,4-dihydro-1H-pyrano[4,3-c]pyridin-4-ol]",238 nM
9,"OC1CCOc2ccc(-c3cncc4c3COCC4O)cc21 (single isomer, unassigned) [Compound 131, 8-(4-Hydroxy-chroman-6-yl)-3,4-dihydro-1H-pyrano[4,3-c]pyridin-4-ol]",1470 nM
10,"CCC(=O)NC1COCc2c(-c3ccc4c(c3)C(O)CCO4)cncc21 (single isomer, unassigned) [Compound 132, N-[8-(4-Hydroxy-chroman-6-yl)-3,4-dihydro-1H-pyrano[4,3-c]pyridin-4-yl]-propionamide]",518 nM
11,"CCS(=O)(=O)NC1COCc2c(-c3ccc4c(c3)C(O)CCO4)cncc21 (single isomer, unassigned) [Compound 133, Ethanesulfonic acid [8-(4-hydroxy-chroman-6-yl)-3,4-dihydro-1H-pyrano[4,3-c]pyridin-4-yl]-amide]",1470 nM
12,"OC1CCOc2ccc(-c3cncc4c3COCC4O)cc21 (single isomer, unassigned) [Compound 134, 8-(4-Hydroxy-chroman-6-yl)-3,4-dihydro-1H-pyrano[4,3-c]pyridin-4-ol]",253 nM
13,"CCC(=O)NC1COCc2c(-c3ccc4c(c3)C(O)CCO4)cncc21 (single isomer, unassigned) [Compound 135, N-[8-(4-Hydroxy-chroman-6-yl)-3,4-dihydro-1H-pyrano[4,3-c]pyridin-4-yl]-propionamide]",341 nM
14,"CCS(=O)(=O)NC1COCc2c(-c3ccc4c(c3)C(O)CCO4)cncc21 (single isomer, unassigned) [Compound 136, Ethanesulfonic acid [8-(4-hydroxy-chroman-6-yl)-3,4-dihydro-1H-pyrano[4,3-c]pyridin-4-yl]-amide]",10000 nM
15,"CC1(O)CCOc2ccc(-c3cncc4c3COCC4O)cc21 (single isomer, unassigned) [Compound 137, 8-(4-Hydroxy-4-methyl-chroman-6-yl)-3,4-dihydro-1H-pyrano[4,3-c]pyridin-4-ol]",1870 nM
16,"CC1(O)CCOc2ccc(-c3cncc4c3COCC4O)cc21 (single isomer, unassigned) [Compound 138, 8-(4-Hydroxy-4-methyl-chroman-6-yl)-3,4-dihydro-1H-pyrano[4,3-c]pyridin-4-ol]",1560 nM
17,"CC1(O)CCOc2ccc(-c3cncc4c3COCC4O)cc21 (single isomer, unassigned) [Compound 139, 8-(4-Hydroxy-4-methyl-chroman-6-yl)-3,4-dihydro-1H-pyrano[4,3-c]pyridin-4-ol]",2800 nM
18,"CC1(O)CCOc2ccc(-c3cncc4c3COCC4O)cc21 (single isomer, unassigned) [Compound 140, 8-(4-Hydroxy-4-methyl-chroman-6-yl)-3,4-dihydro-1H-pyrano[4,3-c]pyridin-4-ol]",12000 nM
